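Test compounds were applied to cells in 96-well plates for 48 hours at 5 doses. GI50 is the concentration that inhibits growth by half.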 Active and inactive are the calls of the source. Cut-off read from the data, not from the text of the source: active = GI50 up to about 1.1 µM and inactive = higher.
Columns and labels:
Test in all cases: NCI-60 cell line screen, 48 h
786-0 = tested on: 786-0
A498 = tested on: A498
ACHN = tested on: ACHN
BT-549 = tested on: BT-549
CAKI-1 = tested on: CAKI-1
COLO 205 = tested on: COLO 205
DU-145 = tested on: DU-145
EKVX = tested on: EKVX
HCC 2998 = tested on: HCC 2998
HCT-116 = tested on: HCT-116
HCT-15 = tested on: HCT-15
HL-60 = tested on: HL-60
HOP-62 = tested on: HOP-62
HT-29 = tested on: HT-29
Hs-578T = tested on: Hs-578T
IGROV-1 = tested on: IGROV-1
K562 = tested on: K562
KM12 = tested on: KM12
LOX IMVI = tested on: LOX IMVI
MCF7 = tested on: MCF7
MDA-MB-231 = tested on: MDA-MB-231
MDA-MB-435 = tested on: MDA-MB-435
MDA-N = tested on: MDA-N
MOLT-4 = tested on: MOLT-4
Malme-3M = tested on: Malme-3M
NCI-H226 = tested on: NCI-H226
NCI-H23 = tested on: NCI-H23
NCI-H460 = tested on: NCI-H460
NCI-H522 = tested on: NCI-H522
NCI/ADR-RES = tested on: NCI/ADR-RES
OVCAR-3 = tested on: OVCAR-3
OVCAR-4 = tested on: OVCAR-4
OVCAR-5 = tested on: OVCAR-5
OVCAR-8 = tested on: OVCAR-8
PC-3 = tested on: PC-3
RPMI-8226 = tested on: RPMI-8226
RXF 393 = tested on: RXF 393
SF-268 = tested on: SF-268
SF-295 = tested on: SF-295
SK-MEL-28 = tested on: SK-MEL-28
SK-MEL-2 = tested on: SK-MEL-2
SK-MEL-5 = tested on: SK-MEL-5
SN12C = tested on: SN12C
SNB-19 = tested on: SNB-19
SNB-75 = tested on: SNB-75
SR = tested on: SR
SW-620 = tested on: SW-620
T47D = tested on: T47D
TK-10 = tested on: TK-10
U-251 = tested on: U-251
UACC-257 = tested on: UACC-257
UACC-62 = tested on: UACC-62
UO-31 = tested on: UO-31
A549 = tested on: A549
CCRF-CEM = tested on: CCRF-CEM
HOP-92 = tested on: HOP-92
M14 = tested on: M14
SF-539 = tested on: SF-539
SK-OV-3 = tested on: SK-OV-3

Compound: O=C(O)c1ccccc1Sc1ccc(C=C2NC(=S)N(c3ccccc3)C2=O)s1
- GI50 (786-0): 18.8 µM (inactive)
- GI50 (A498): > 100 µM (inactive)
- GI50 (ACHN): 39.6 µM (inactive)
- GI50 (BT-549): > 100 µM (inactive)
- GI50 (CAKI-1): 44.4 µM (inactive)
- GI50 (COLO 205): 54.7 µM (inactive)
- GI50 (DU-145): > 100 µM (inactive)
- GI50 (EKVX): 97.3 µM (inactive)
- GI50 (HCC 2998): 97.5 µM (inactive)
- GI50 (HCT-116): 72.8 µM (inactive)
- GI50 (HCT-15): > 100 µM
- GI50 (HL-60): 25.2 µM (inactive)
- GI50 (HOP-62): > 100 µM (inactive)
- GI50 (HT-29): > 100 µM (inactive)
- GI50 (Hs-578T): > 100 µM (inactive)
- GI50 (IGROV-1): > 100 µM (inactive)
- GI50 (K562): 31.6 µM (inactive)
- GI50 (KM12): > 100 µM (inactive)
- GI50 (LOX IMVI): > 100 µM (inactive)
- GI50 (MCF7): > 100 µM (inactive)
- GI50 (MDA-MB-231): > 100 µM (inactive)
- GI50 (MDA-MB-435): > 100 µM (inactive)
- GI50 (MDA-N): > 100 µM (inactive)
- GI50 (MOLT-4): 54.1 µM (inactive)
- GI50 (Malme-3M): > 100 µM (inactive)
- GI50 (NCI-H226): > 100 µM (inactive)
- GI50 (NCI-H23): > 100 µM (inactive)
- GI50 (NCI-H460): > 100 µM (inactive)
- GI50 (NCI-H522): 21.4 µM (inactive)
- GI50 (NCI/ADR-RES): > 100 µM (inactive)
- GI50 (OVCAR-3): 47.5 µM (inactive)
- GI50 (OVCAR-4): 24.9 µM (inactive)
- GI50 (OVCAR-5): > 100 µM (inactive)
- GI50 (OVCAR-8): > 100 µM (inactive)
- GI50 (PC-3): > 100 µM (inactive)
- GI50 (RPMI-8226): 41 µM (inactive)
- GI50 (RXF 393): > 100 µM (inactive)
- GI50 (SF-268): > 100 µM (inactive)
- GI50 (SF-295): > 100 µM (inactive)
- GI50 (SK-MEL-28): > 100 µM (inactive)
- GI50 (SK-MEL-2): 22.2 µM (inactive)
- GI50 (SK-MEL-5): > 100 µM (inactive)
- GI50 (SN12C): > 100 µM (inactive)
- GI50 (SNB-19): > 100 µM (inactive)
- GI50 (SNB-75): > 100 µM (inactive)
- GI50 (SR): 29 µM (inactive)
- GI50 (SW-620): > 100 µM (inactive)
- GI50 (T47D): 77.6 µM (inactive)
- GI50 (TK-10): 76.2 µM (inactive)
- GI50 (U-251): > 100 µM (inactive)
- GI50 (UACC-257): > 100 µM (inactive)
- GI50 (UACC-62): > 100 µM (inactive)
- GI50 (UO-31): 78.7 µM (inactive)

Compound: O=C(O)CNc1ccc(Cl)c(Cl)c1
- GI50 (786-0): 24.7 µM (inactive)
- GI50 (A498): 30.4 µM (inactive)
- GI50 (A549): 32.1 µM (inactive)
- GI50 (ACHN): 20 µM (inactive)
- GI50 (BT-549): 36.7 µM (inactive)
- GI50 (CAKI-1): 17.9 µM (inactive)
- GI50 (CCRF-CEM): 31.6 µM (inactive)
- GI50 (COLO 205): 18.5 µM (inactive)
- GI50 (DU-145): 29.4 µM (inactive)
- GI50 (EKVX): 23.1 µM (inactive)
- GI50 (HCT-116): 19.2 µM (inactive)
- GI50 (HCT-15): 8.83 µM
- GI50 (HL-60): 24 µM (inactive)
- GI50 (HOP-62): 24 µM (inactive)
- GI50 (HOP-92): 15.8 µM (inactive)
- GI50 (HT-29): 40.6 µM (inactive)
- GI50 (Hs-578T): 33.6 µM (inactive)
- GI50 (IGROV-1): 1.1 µM (active)
- GI50 (K562): 25.1 µM (inactive)
- GI50 (KM12): 19.1 µM (inactive)
- GI50 (LOX IMVI): 35.2 µM (inactive)
- GI50 (M14): 27.4 µM (inactive)
- GI50 (MCF7): 13.9 µM (inactive)
- GI50 (MDA-MB-231): 45.3 µM (inactive)
- GI50 (MDA-MB-435): 26.3 µM (inactive)
- GI50 (MDA-N): 23.7 µM (inactive)
- GI50 (MOLT-4): 29.6 µM (inactive)
- GI50 (NCI-H226): 27.5 µM (inactive)
- GI50 (NCI-H23): 34.4 µM (inactive)
- GI50 (NCI-H460): 23.6 µM (inactive)
- GI50 (NCI-H522): 16.3 µM (inactive)
- GI50 (NCI/ADR-RES): 28.6 µM (inactive)
- GI50 (OVCAR-3): 25.9 µM (inactive)
- GI50 (OVCAR-4): 31.6 µM (inactive)
- GI50 (OVCAR-5): 40.9 µM (inactive)
- GI50 (OVCAR-8): 29 µM (inactive)
- GI50 (PC-3): 24.6 µM (inactive)
- GI50 (RPMI-8226): 21.9 µM (inactive)
- GI50 (RXF 393): 35.3 µM (inactive)
- GI50 (SF-268): 28.9 µM (inactive)
- GI50 (SF-295): 24.6 µM (inactive)
- GI50 (SF-539): 33.5 µM (inactive)
- GI50 (SK-MEL-5): 26.5 µM (inactive)
- GI50 (SK-OV-3): 37.8 µM (inactive)
- GI50 (SN12C): 32.7 µM (inactive)
- GI50 (SNB-19): 34.5 µM (inactive)
- GI50 (SNB-75): 26.6 µM (inactive)
- GI50 (SW-620): 23.9 µM (inactive)
- GI50 (T47D): 15.6 µM (inactive)
- GI50 (TK-10): 20 µM (inactive)
- GI50 (U-251): 31.1 µM (inactive)
- GI50 (UACC-257): 26.7 µM (inactive)
- GI50 (UACC-62): 28.1 µM (inactive)
- GI50 (UO-31): 24.9 µM (inactive)

Compound: O=C(O)c1c(Cl)c(Cl)c(Cl)c(Cl)c1C(=O)Nc1ccc2cn[nH]c2c1
- GI50 (786-0): > 100 µM (inactive)
- GI50 (A498): > 100 µM (inactive)
- GI50 (A549): > 100 µM (inactive)
- GI50 (ACHN): > 100 µM (inactive)
- GI50 (BT-549): > 100 µM (inactive)
- GI50 (CAKI-1): > 100 µM (inactive)
- GI50 (COLO 205): > 100 µM (inactive)
- GI50 (DU-145): 48 µM (inactive)
- GI50 (EKVX): > 100 µM (inactive)
- GI50 (HCT-116): > 100 µM (inactive)
- GI50 (HCT-15): > 100 µM
- GI50 (HOP-62): 59.6 µM (inactive)
- GI50 (HOP-92): > 100 µM (inactive)
- GI50 (HT-29): > 100 µM (inactive)
- GI50 (Hs-578T): 39.7 µM (inactive)
- GI50 (IGROV-1): > 100 µM (inactive)
- GI50 (K562): 97.3 µM (inactive)
- GI50 (KM12): 62.1 µM (inactive)
- GI50 (M14): > 100 µM (inactive)
- GI50 (MCF7): 92.7 µM (inactive)
- GI50 (MDA-MB-231): > 100 µM (inactive)
- GI50 (MDA-MB-435): > 100 µM (inactive)
- GI50 (MDA-N): > 100 µM (inactive)
- GI50 (Malme-3M): > 100 µM (inactive)
- GI50 (NCI-H226): > 100 µM (inactive)
- GI50 (NCI-H23): > 100 µM (inactive)
- GI50 (NCI-H460): > 100 µM (inactive)
- GI50 (NCI-H522): > 100 µM (inactive)
- GI50 (NCI/ADR-RES): > 100 µM (inactive)
- GI50 (OVCAR-3): 65.2 µM (inactive)
- GI50 (OVCAR-4): > 100 µM (inactive)
- GI50 (OVCAR-5): > 100 µM (inactive)
- GI50 (OVCAR-8): > 100 µM (inactive)
- GI50 (PC-3): > 100 µM (inactive)
- GI50 (RPMI-8226): 37.4 µM (inactive)
- GI50 (RXF 393): > 100 µM (inactive)
- GI50 (SF-268): > 100 µM (inactive)
- GI50 (SF-295): > 100 µM (inactive)
- GI50 (SF-539): > 100 µM (inactive)
- GI50 (SK-MEL-28): > 100 µM (inactive)
- GI50 (SK-MEL-2): > 100 µM (inactive)
- GI50 (SK-MEL-5): > 100 µM (inactive)
- GI50 (SK-OV-3): > 100 µM (inactive)
- GI50 (SN12C): > 100 µM (inactive)
- GI50 (SNB-19): > 100 µM (inactive)
- GI50 (SNB-75): 74.8 µM (inactive)
- GI50 (SW-620): > 100 µM (inactive)
- GI50 (T47D): 74.3 µM (inactive)
- GI50 (TK-10): > 100 µM (inactive)
- GI50 (U-251): > 100 µM (inactive)
- GI50 (UACC-257): > 100 µM (inactive)
- GI50 (UACC-62): > 100 µM (inactive)
- GI50 (UO-31): > 100 µM (inactive)

From ChEMBL document CHEMBL1201862, “PubChem BioAssay data set” (2004)
